From patent US20210330774A1, “HERV-K-DERIVED ANTIGENS AS SHARED TUMOR ANTIGENS FOR ANTI-CANCER VACCINE” (CENTRE LEON BERARD, priority 2018, published 2021)

How the values were obtained:
Type in all cases: cell-based, human
CD8+ T cells = test: Dextramer assay after 12-day peptide stimulation of PBMCs from HLA-A2 donors; conditions: for dextramer positive CD8+ T cells: representative plot, day 12, peptide-stimulated PBMCs; for ability to elicit a specific CD8+ T cell response: summary statement; for increase in dextramer positive CD8+ T cells, peptide stimulated versus non stimulated: FIG. 4B, 12 different donors, day 12
[1] = tested on: CD8+ T cells expanded from TNBC and ovarian tumor dilacerate; test: Dextramer staining of tumor infiltrated lymphocytes (TILs) from TNBC and ovarian cancer; conditions: day 14, FIG. 7
Protocol: Tumors were dilacerated in small pieces and digested with collagenase IV and DNAse for 45 minutes. The cells obtained were resuspended in 5% human serum RPMI and distributed in 96 well (5.10^4 cells per well). Anti-CD3/CD28 microbeads (Miltenyi biotech) were added to the well in a ratio of 1:4 with cells in the presence of IL-2 (F.C. 100 IU/ml). TILs were cultured for 14 days by changing medium at day 5, 7, 9 and 12 and the number of the cells was adapted to have 0.5×10^6 cells/ml.
At day 14 a dextramer staining was performed (see dextramer assay paragraph) for the 7 peptides of interest (P1 to P7—SEQ ID NO: 1 to 7) and dextramer specific CD8+ T cells were identified by FACS analysis in TNBC (FIG. 7A) and ovarian cancer (FIG. 7B).

[2] = tested on: T2 cells pulsed with HERV peptide; test: Cytotoxicity assay with T2 cells contact (intracellular IFN-γ of CD8+ T cells, FACS); conditions: for IFN-γ production, percentage of CD8+ T cells (in median): FIG. 3B, 5 different donors, day 12, T2 cells pulsed with cognate peptide; for IFN-γ production, number of CD8+ T cells: FIG. 5B, 12 different donors, day 12
Protocol: On day 12 of PBMCs culture, T2 cells were washed in RPMI and resuspended into AIM-V medium (Thermo Fisher Scientific). T2 (SD Cell line) are a lymphoblast cell line deficient in the transporter associated with antigen processing (TAP) protein, and therefore cannot present endogenous peptides on the class I MHC, but can be used to monitor the CTL response to an exogenous antigen of interest in a non-competitive environment. T2 cells were first pulsed with HERV peptide by adding 10 μg/mL of corresponding peptide to 2M T2 cell for 2 hours at 37° C. PBMCs were pooled and counted and put in co-culture with corresponding T2 cells at a respective concentration of 1:5 into a new 96 U-well plate.
After 4 hours of incubation at 37° C., cells from co-culture were washed and pooled in V-well plate according to their staining condition in FACS buffer. Zombie NIR (Biolegend) was used at 1/400 to assess viability. Anti CD3 (PercP, Biolegend) and anti CD8 (FITC, Beckman coulter) antibodies were added 1/10 per condition and left for 25 minutes at 4° C. Cells were washed again and then fixed with fixation/permeabilization solution kit (Invitrogen, Carlasbad, USA) according to the manufacturer's instructions for 15 minutes at room temperature. Cells were washed two times in FACS buffer and kept at 4° c.
On day 13, cells were permeabilized with the permeabilization solution kit (Invitrogen) for 5 minutes at room temperature and anti IFN-γ (PE, Biolegend) antibody was added 1/20 to the solution for additional 25 minutes at 4° C. Cells were washed two times and resuspended in 350 μL of FACS buffer before FACS analysis. Analysis was performed on FACS Fortessa (BD) to explore the specific cytotoxicity and degranulation against T2 cells expressing HERV sequences.

[3] = tested on: T2 cells pulsed with the cognate peptide; test: ELISPOT for IFN-γ and Granzyme-β of peptide stimulated PBMCs co-cultured with T2 cells; conditions: 2.10^5 cells per well, ratio 10:1 with T2 cells, revealed after 24h
Protocol: C. Representative histograms of the number of IFN-γ+ and Granzyme-I3+ spots after 12 days stimulation and following 24h of contact with T2 cells pulsed with the cognate peptide.
Peptide stimulated PBMCs after the 12-day culture were used to perform an ELISPOT assay for IFN-γ and Granzyme-β (FIG. 2C). 2.10^5 cells per well were put in co-culture with T2 cell specific for the peptide of interest in a ratio 10:1.

Row | Sequence | dextramer positive CD8+ T cells (CD8+ T cells; FIG. 2A) [%] | ability to elicit a specific CD8+ T cell response (CD8+ T cells) | frequency of specific CD8+ T cells in the tumors [1] | IFN-γ production, percentage of CD8+ T cells (in median) [2] [%] | IFN-γ production, number of CD8+ T cells [2] | specific IFN-γ and Granzyme-β spots [3] | dextramer positive CD8+ T cells (CD8+ T cells; FIG. 4A) [%] | increase in dextramer positive CD8+ T cells, peptide stimulated versus non stimulated (CD8+ T cells)
1 | AMIPKDWPL (HERV epitope 5) [P5] | 34.2 | able to elicit a specific CD8+ T cell response | – | – | – | – | – | –
2 | FLQFKTWWI (HERV epitope) [P1] | – | able to elicit a specific CD8+ T cell response | more frequently represented | ~10 | significant number | specific IFN-γ and Granzyme-β spots | 0.63 | significant increase
3 | KLIDCYTFL (epitope 3) [P3] | – | able to elicit a specific CD8+ T cell response | – | ~5 | significant number | – | – | slightly
4 | RLIPYDWEI (epitope 2) [P2] | – | able to elicit a specific CD8+ T cell response | – | ~5 | significant number | – | – | slightly
5 | SMDDQLNQL (HERV epitope 7) [P7] | – | able to elicit a specific CD8+ T cell response | – | – | – | – | – | –
6 | YAMSNLFSI (HERV epitope 6) [P6] | – | able to elicit a specific CD8+ T cell response | more frequently represented | – | moderate number | specific IFN-γ and Granzyme-β spots | – | significant increase
7 | YLSFIKILL (HERV epitope 4) [P4] | – | able to elicit a specific CD8+ T cell response | – | – | – | – | – | significant increase
